Type in all cases: functional
Experiment [1] has as its system Mycobacterium tuberculosis. Put plainly: Minimum inhibitory concentration tested against Mycobacterium tuberculosis H37Rv ATCC 27294.
Experiment [2] deals with Mycobacterium tuberculosis. Put plainly: Minimum inhibitory concentration tested against Mycobacterium tuberculosis sensitive clinical isolates; Range 0.125-0.25 ug/ml.
Experiment [3] concerns Mycobacterium intracellulare. Description: Minimum inhibitory concentration tested against Mycobacterium intracellular ATCC 13950.
The next experiment deals with Mycobacterium avium. Description: Minimum inhibitory concentration tested against Mycobacterium avium ATCC 49601.
Experiment [4] concerns Mycobacterium tuberculosis. Description: Minimum inhibitory concentration tested against Mycobacterium tuberculosis sensitive clinical isolates.
For experiment [5], the system named is Mycobacterium tuberculosis. Put plainly: Minimum inhibitory concentration tested against Mycobacterium tuberculosis sensitive clinical isolates; Range:1-4 ug/ml.
For experiment [6], the system named is Mycobacterium tuberculosis. Description: Minimum inhibitory concentration tested against Mycobacterium tuberculosis sensitive clinical isolates; Range 8-16 ug/mL.
For experiment [7], the system named is Mycobacterium tuberculosis. Description: Minimum inhibitory concentration tested against Mycobacterium tuberculosis sensitive clinical isolates; Range:1-2 ug/ml.

For nine compounds, MIC results are on record in ChEMBL document CHEMBL1143511, “Antitubercular agents. Part 1: synthesis of phthalimido- and naphthalimido-linked phenazines as new prototype antitubercular agents” (2005).

SMILES strings stand for the structures. Converted amounts (≈) assume the structure as drawn.

The MIC is the lowest concentration that inhibits growth of the organism. Turning to `NNC(=O)c1ccncc1` [ISONIAZID], the minimal inhibitory concentration (MIC) is 0.25 µg/mL (≈ 1.82 µM) in experiment [1], 0.25 µg/mL (≈ 1.82 µM) in experiment [2], 8 µg/mL (≈ 58.3 µM) in experiment [3] and more than 16 µg/mL in the experiment on Mycobacterium avium.

Turning to `O=C1c2cccc3cccc(c23)C(=O)N1CCCN1CCN(CC/N=c2/cc3n(-c4ccc(Cl)cc4)c4ccccc4nc-3cc2Nc2ccc(Cl)cc2)CC1`, the MIC (in experiment [1]; in experiment [4]; in experiment [3]; against Mycobacterium avium) was more than 16 µg/mL throughout.

For the compound `O=C1c2ccccc2C(=O)N1CCCCCN1CCN(CC/N=c2/cc3n(-c4ccc(Cl)cc4)c4ccccc4nc-3cc2Nc2ccc(Cl)cc2)CC1`, the MIC in experiment [1] came out at 1 µg/mL (≈ 1.32 µM); in experiment [5], 4 µg/mL (≈ 5.27 µM); in experiment [3] it was 8 µg/mL (≈ 10.5 µM); against Mycobacterium avium it was 16 µg/mL (≈ 21.1 µM).

`O=C1c2cccc3cccc(c23)C(=O)N1CCCCCCN1CCN(CC/N=c2/cc3n(-c4ccc(Cl)cc4)c4ccccc4nc-3cc2Nc2ccc(Cl)cc2)CC1`: the MIC in experiment [6] is 16 µg/mL (≈ 19.4 µM); in experiment [1] it was 16 µg/mL (≈ 19.4 µM); in experiment [3], more than 16 µg/mL; against Mycobacterium avium, more than 16 µg/mL.

On to `O=C1c2ccccc2C(=O)N1CCCCN1CCN(CC/N=c2/cc3n(-c4ccc(Cl)cc4)c4ccccc4nc-3cc2Nc2ccc(Cl)cc2)CC1`, for which the MIC (in experiment [1]; in experiment [4]; in experiment [3]; against Mycobacterium avium) was more than 16 µg/mL throughout.

Consider `O=C1c2cccc3cccc(c23)C(=O)N1CCCCN1CCN(CC/N=c2/cc3n(-c4ccc(Cl)cc4)c4ccccc4nc-3cc2Nc2ccc(Cl)cc2)CC1`, for which the minimum inhibitory concentration (MIC) (in experiment [1]; in experiment [4]; in experiment [3]; against Mycobacterium avium) was more than 16 µg/mL in each case.

With `O=C1c2ccccc2C(=O)N1CCCCCCN1CCN(CC/N=c2/cc3n(-c4ccc(Cl)cc4)c4ccccc4nc-3cc2Nc2ccc(Cl)cc2)CC1`, the minimum inhibitory concentration (MIC) is 2 µg/mL (≈ 2.59 µM) in experiment [7], 1 µg/mL (≈ 1.29 µM) in experiment [1], 8 µg/mL (≈ 10.4 µM) in experiment [3] and 16 µg/mL (≈ 20.7 µM) with Mycobacterium avium.

With `O=C1c2cccc3cccc(c23)C(=O)N1CCCCCN1CCN(CC/N=c2/cc3n(-c4ccc(Cl)cc4)c4ccccc4nc-3cc2Nc2ccc(Cl)cc2)CC1`, the minimum inhibitory concentration (MIC) (in experiment [1]; in experiment [4]; in experiment [3]; against Mycobacterium avium) was more than 16 µg/mL each time.

In the case of `O=C1c2ccccc2C(=O)N1CCCN1CCN(CC/N=c2/cc3n(-c4ccc(Cl)cc4)c4ccccc4nc-3cc2Nc2ccc(Cl)cc2)CC1`, the minimal inhibitory concentration (MIC) (in experiment [1]; in experiment [4]; in experiment [3]; in the experiment on Mycobacterium avium) was more than 16 µg/mL throughout.
